Measurements as given in US6506772B1, “Substituted [1,2,4]triazolo[1,5a]pyridine derivatives with activity as adenosine receptor ligands” (Hoffmann-La Roche Inc., priority 2000, dated 2003).

Key:
[1] = target: T1, human adenosine A2A receptor (Homo sapiens, UniProt P29274); experiment: Human adenosine A2A receptor [3H]-SCH-58261 binding assay; details: for Ki: affinity to human adenosine A2A receptor, read-out: Ki HA2A; for selectivity (A1/A2a): calculated ratio of the affinity to the HA1 receptor to the HA2a receptor
T1 construct: expressed in transfected cells; host or cells: CHO cells, Semliki Forest virus expression system; membrane preparation
T1 sequence (P29274 whole entry): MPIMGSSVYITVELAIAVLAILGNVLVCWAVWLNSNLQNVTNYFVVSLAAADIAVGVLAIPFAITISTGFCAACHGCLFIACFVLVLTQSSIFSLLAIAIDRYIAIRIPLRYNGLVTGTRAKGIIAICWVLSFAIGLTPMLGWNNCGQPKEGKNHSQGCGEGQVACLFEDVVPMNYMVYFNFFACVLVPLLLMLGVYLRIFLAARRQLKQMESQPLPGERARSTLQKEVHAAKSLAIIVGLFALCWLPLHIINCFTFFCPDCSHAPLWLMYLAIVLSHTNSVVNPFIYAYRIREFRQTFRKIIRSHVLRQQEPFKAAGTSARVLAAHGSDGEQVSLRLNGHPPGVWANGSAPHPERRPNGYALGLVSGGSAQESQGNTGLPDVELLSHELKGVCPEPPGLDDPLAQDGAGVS

[2] = target: T2, HA1 adenosine receptor (Homo sapiens, UniProt P30542); experiment: Human adenosine A1 receptor affinity (Ki hA1); type: binding; details: affinity to human adenosine A1 receptor
T2 sequence (P30542 1-326): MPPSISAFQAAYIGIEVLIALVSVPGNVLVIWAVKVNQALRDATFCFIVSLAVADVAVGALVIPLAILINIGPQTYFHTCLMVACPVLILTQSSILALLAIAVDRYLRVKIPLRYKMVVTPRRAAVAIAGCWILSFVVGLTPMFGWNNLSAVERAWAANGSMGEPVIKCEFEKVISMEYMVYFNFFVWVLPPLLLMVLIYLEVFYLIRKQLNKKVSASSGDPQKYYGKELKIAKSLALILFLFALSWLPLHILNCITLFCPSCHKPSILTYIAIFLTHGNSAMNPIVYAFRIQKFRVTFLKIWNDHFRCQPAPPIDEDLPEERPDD

Row | SMILES | Ki [1] | selectivity (A1/A2a) [1] | Ki [2]
1 | Nc1cc(C(=O)NCc2ccccc2)cc2nc(-c3ccc(Br)o3)nn12 [Example 166, 5-Amino-2-(5-bromo-furan-2-yl)-[1,2,4]triazolo[1,5-a]pyridine-7-carboxylic acid benzylamide] | 39.7 nM | 5.1 | 201 nM
2 | CCCCNC(=O)c1cc(N)n2nc(-c3cc(Br)co3)nc2c1 [Example 168, 5-Amino-2-(4-bromo-furan-2-yl)-[1,2,4]triazolo[1,5-a]pyridine-7-carboxylic acid butylamide] | 18.4 nM | 2.6 | 47.2 nM
3 | CCN(CC)C(=O)c1cc(N)n2nc(-c3cc(Br)co3)nc2c1 [Example 169, 5-Amino-2-(4-bromo-furan-2-yl)-[1,2,4]triazolo[1,5-a]pyridine-7-carboxylic acid diethylamide] | 119 nM | 3.4 | 407 nM
4 | Nc1cc(C(=O)N2CCCC2)cc2nc(-c3cc(Br)co3)nn12 [Example 170, [5-Amino-2-(4-bromo-furan-2-yl)-[1,2,4]triazolo[1,5-a]pyridin-7-yl]-pyrrolidin-1-yl-methanone] | 33.8 nM | 4.5 | 152 nM
5 | Nc1cc(C(=O)NCc2ccccc2)cc2nc(-c3cc(Br)co3)nn12 [Example 172, 5-Amino-2-(4-bromo-furan-2-yl)-[1,2,4]triazolo[1,5-a]pyridine-7-carboxylic acid benzylamide] | 29.7 nM | 0.8 | 24.7 nM
6 | CCCCNC(=O)c1cc(N)n2nc(-c3cccn3C)nc2c1 [Example 178, 5-Amino-2-(1-methyl-1H-pyrrol-2-yl)-[1,2,4]triazolo[1,5-a]pyridine-7-carboxylic acid butylamide] | 65.2 nM | 6.9 | 450 nM
7 | Cn1cccc1-c1nc2cc(C(=O)NC3CCCCC3)cc(N)n2n1 [Example 179, 5-Amino-2-(1-methyl-1H-pyrrol-2-yl)-[1,2,4]triazolo[1,5-a]pyridine-7-carboxylic acid cyclohexylamide] | 144 nM | 5.4 | 779 nM
8 | Cn1cccc1-c1nc2cc(C(=O)NCc3ccccc3Cl)cc(N)n2n1 [Example 181, 5-Amino-2-(1-methyl-1H-pyrrol-2-yl)-[1,2,4]triazolo[1,5-a]pyridine-7-carboxylic acid 2-chloro-benzylamide] | 54.3 nM | 4.7 | 256 nM
9 | Cn1cccc1-c1nc2cc(C(=O)NCc3ccccc3Br)cc(N)n2n1 [Example 182, 5-Amino-2-(1-methyl-1H-pyrrol-2-yl)-[1,2,4]triazolo[1,5-a]pyridine-7-carboxylic acid 2-bromo-benzylamide] | 54.6 nM | 4.9 | 270 nM
10 | COc1ccc(CNC(=O)c2cc(N)n3nc(-c4ccco4)nc3c2)cc1 [Example 183, 5-Amino-2-furan-2-yl-[1,2,4]triazolo[1,5-a]pyridine-7-carboxylic acid 4-methoxy-benzylamide] | 33.7 nM | 9.0 | 302 nM
11 | CCCCNC(=O)c1cc(N)n2nc(-c3sccc3C)nc2c1 [Example 184, 5-Amino-2-(3-methyl-thiophen-2-yl)-[1,2,4]triazolo[1,5-a]pyridine-7-carboxylic acid butylamide] | 69.5 nM | 1.9 | 133 nM
12 | CCN(CC)C(=O)c1cc(N)n2nc(-c3sccc3C)nc2c1 [Example 185, 5-Amino-2-(3-methyl-thiophen-2-yl)-[1,2,4]triazolo[1,5-a]pyridine-7-carboxylic acid diethylamide] | 238 nM | 6.0 | 1420 nM
13 | Cc1ccsc1-c1nc2cc(C(=O)NC3CCc4ccccc43)cc(N)n2n1 (stereo not drawn) [Example 187, 5-Amino-2-(3-methyl-thiophen-2-yl)-[1,2,4]triazolo[1,5-a]pyridine-7-carboxylic acid indan-1-ylamide] | 224 nM | 1.0 | 228 nM
14 | Cc1ccsc1-c1nc2cc(C(=O)N3CCCC3)cc(N)n2n1 [Example 188, [5-Amino-2-(3-methyl-thiophen-2-yl)-[1,2,4]triazolo[1,5-a]pyridin-7-yl]-pyrrolidin-1-yl-methanone] | 226 nM | 3.1 | 711 nM
15 | Cc1ccsc1-c1nc2cc(C(=O)NC(C)c3ccccc3)cc(N)n2n1 (stereo not drawn) [Example 190, 5-Amino-2-(3-methyl-thiophen-2-yl)-[1,2,4]triazolo[1,5-a]pyridine-7-carboxylic acid (1-phenyl-ethyl)-amide] | 365 nM | 0.1 | 47.3 nM
16 | Cc1ccsc1-c1nc2cc(C(=O)NCc3ccccc3Cl)cc(N)n2n1 [Example 191, 5-Amino-2-(3-methyl-thiophen-2-yl)-[1,2,4]triazolo[1,5-a]pyridine-7-carboxylic acid 2-chloro-benzylamide] | 108 nM | 1.2 | 131 nM
17 | CCCCNC(=O)c1cc(N)n2nc(-c3ccc(C)s3)nc2c1 [Example 193, 5-Amino-2-(5-methyl-thiophen-2-yl)-[1,2,4]triazolo[1,5-a]pyridine-7-carboxylic acid butylamide] | 41.7 nM | 1.8 | 74.8 nM
18 | CCN(C(=O)c1cc(N)n2nc(-c3ccc(C)s3)nc2c1)C(C)C [Example 194, 5-Amino-2-(5-methyl-thiophen-2-yl)-[1,2,4]triazolo[1,5-a]pyridine-7-carboxylic acid ethyl-isopropyl-amide] | 56.3 nM | 4.4 | 246 nM

Next, values leading:

Row | Ki [1] | selectivity (A1/A2a) [1] | Ki [2] | SMILES
19 | 42.7 nM | 4.6 | 196 nM | Nc1cc(C(=O)NCc2ccccc2Br)cc2nc(-c3ccc(Br)o3)nn12 [Example 167]
20 | 64.9 nM | 4.3 | 276 nM | Nc1cc(C(=O)N2CCCCC2)cc2nc(-c3cc(Br)co3)nn12 [Example 171, [5-Amino-2-(4-bromo-furan-2-yl)-[1,2,4]triazolo[1,5-a]pyridin-7-yl]-piperidin-1-yl-methanone]
21 | 44.4 nM | 1.7 | 73.6 nM | CC(C)N(Cc1ccccc1)C(=O)c1cc(N)n2nc(-c3cc(Br)co3)nc2c1 [Example 173, 5-Amino-2-(4-bromo-furan-2-yl)-[1,2,4]triazolo[1,5-a]pyridine-7-carboxylic acid benzyl-isopropyl-amide]
22 | 11.1 nM | 1.6 | 17.5 nM | Nc1cc(C(=O)NCc2ccccc2Cl)cc2nc(-c3cc(Br)co3)nn12 [Example 174, 5-Amino-2-(4-bromo-furan-2-yl)-[1,2,4]triazolo[1,5-a]pyridine-7-carboxylic acid 2-chloro-benzylamide]
23 | 14.6 nM | 1.5 | 22.6 nM | Nc1cc(C(=O)NCc2ccccc2Br)cc2nc(-c3cc(Br)co3)nn12 [Example 175, 5-Amino-2-(4-bromo-furan-2-yl)-[1,2,4]triazolo[1,5-a]pyridine-7-carboxylic acid 2-bromo-benzylamide]
24 | 329 nM | 0.5 | 151 nM | COc1ccc(CNC(=O)c2cc(N)n3nc(-c4cc(Br)co4)nc3c2)cc1 [Example 176, 5-Amino-2-(4-bromo-furan-2-yl)-[1,2,4]triazolo[1,5-a]pyridine-7-carboxylic acid 4-methoxy-benzylamide]
25 | 197 nM | 1.3 | 266 nM | COc1cc(CNC(=O)c2cc(N)n3nc(-c4cc(Br)co4)nc3c2)cc(OC)c1OC [Example 177, 5-Amino-2-(4-bromo-furan-2-yl)-[1,2,4]triazolo[1,5-a]pyridine-7-carboxylic acid 3,4,5-trimethoxy-benzylamide]
26 | 112 nM | 2.7 | 307 nM | Cn1cccc1-c1nc2cc(C(=O)NCc3ccccc3)cc(N)n2n1 [Example 180, 5-Amino-2-(1-methyl-1H-pyrrol-2-yl)-[1,2,4]triazolo[1,5-a]pyridine-7-carboxylic acid benzylamide]
27 | 210 nM | 1.2 | 249 nM | Cc1ccsc1-c1nc2cc(C(=O)N(C(C)C)C(C)C)cc(N)n2n1 [Example 186, 5-Amino-2-(3-methyl-thiophen-2-yl)-[1,2,4]triazolo[1,5-a]pyridine-7-carboxylic acid diisopropylamide]
28 | 268 nM | 2.9 | 763 nM | Cc1ccsc1-c1nc2cc(C(=O)N3CCCCC3)cc(N)n2n1 [Example 189, [5-Amino-2-(3-methyl-thiophen-2-yl)-[1,2,4]triazolo[1,5-a]pyridin-7-yl]-piperidin-1-yl-methanone]
29 | 129 nM | 0.9 | 112 nM | COc1ccccc1CNC(=O)c1cc(N)n2nc(-c3sccc3C)nc2c1 [Example 192, 5-Amino-2-(3-methyl-thiophen-2-yl)-[1,2,4]triazolo[1,5-a]pyridine-7-carboxylic acid 2-methoxy-benzylamide]
30 | 109 nM | 1.3 | 145 nM | Cc1ccc(-c2nc3cc(C(=O)NC4CCCCC4)cc(N)n3n2)s1 [Example 195, 5-Amino-2-(5-methyl-thiophen-2-yl)-[1,2,4]triazolo[1,5-a]pyridine-7-carboxylic acid cyclohexylamide]
